In EP4813403A1, “USE OF GLP-1R/GIPR DOUBLE-TARGET AGONIST IN PREPARING ANIMAL DRUG” (Hangzhou Zhongmeihuadong Pharmaceutical Co., Ltd., priority 2023, dated 2025):

Columns and labels:
human GIPR = target: T1, human GIPR (Homo sapiens, UniProt P48546); test: Agonistic activity on GIPR of different species (LANCE Ultra cAMP assay): human; format: cell-based; settings: ratio of EC50 value of other species to human EC50 value
T1 construct: expressed in transfected cells
T1 sequence (P48546 22-466): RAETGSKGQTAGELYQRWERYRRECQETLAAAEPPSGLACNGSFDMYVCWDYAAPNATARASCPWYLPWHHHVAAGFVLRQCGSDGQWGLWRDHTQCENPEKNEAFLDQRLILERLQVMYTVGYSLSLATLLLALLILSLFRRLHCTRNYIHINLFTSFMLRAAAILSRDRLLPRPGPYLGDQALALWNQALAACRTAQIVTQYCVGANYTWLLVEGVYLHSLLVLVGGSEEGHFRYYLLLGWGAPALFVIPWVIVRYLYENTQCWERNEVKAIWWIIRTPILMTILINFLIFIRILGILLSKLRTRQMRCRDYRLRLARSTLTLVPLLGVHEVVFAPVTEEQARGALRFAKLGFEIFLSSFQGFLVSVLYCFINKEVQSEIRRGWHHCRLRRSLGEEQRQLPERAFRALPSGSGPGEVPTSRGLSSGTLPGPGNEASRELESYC
Protocol: (§1) CHO-K1 cells were seeded in a 6-well plate at 0.6×10^6 cells/well and incubated overnight in an incubator at a temperature of 37 °C and a carbon dioxide concentration of 5%. The next day, CHO-K1 cell media were replaced. Then two tubes A and B were prepared for each plasmid. 100 µL Opti-MEM was added to tube A, then 4 µL Lipofectamine™ 3000 was added and mixed uniformly. 100 µL Opti-MEM was firstly added to tube B, then 2 µg of one of the plasmids (human GIPR-pcDNA5 (+) plasmid, dog GIPR-pcDNA5 (+) plasmid, mouse GIPR-pcDNA5 (+) plasmid, rat GIPR-pcDNA5 (+) plasmid, rabbit GIPR-pcDNA5 (+) plasmid, monkey GIPR-pcDNA5 (+) plasmid) was added and mixed uniformly, and 4 µL P3000™ was added to tube B and mixed uniformly (the ratio of plasmid to transfection reagent was 1 µg: 2 µL). […]
18-20 hours after transfection, human GIPR-CHO, dog GIPR-CHO, mouse GIPR-CHO, rat GIPR-CHO, rabbit GIPR-CHO, and monkey GIPR-CHO cells were resuspended in 1×Casein Stimulation Buffer (HBSS, 5 mM HEPES, 0.5 mM IBMX, 0.1% casein, pH7.4), and seeded into a 384-well cell culture plate at 9 µL/well (cell numbers being 1000, 2000, 2000, 2000, 2000, 2000 cells/well, respectively). […] The readings at 665 nm and 620 nm were determined with a 330 nm excitation light on a microplate reader. The 665 nm/620 nm reading ratio was calculated. […]

cat GIPR = test: Agonistic activity on GIPR of different species (LANCE Ultra cAMP assay): cat; format: cell-based; settings: ratio of EC50 value of other species to human EC50 value
Protocol: as §1, with “(human GLP-1R-pcDNA5 (+) plasmid, cat GLP-1R-pcDNA5 (+) plasmid, human” for “(human”, “cat” for “dog GIPR-pcDNA5 (+) plasmid, mouse GIPR-pcDNA5 (+) plasmid, rat GIPR-pcDNA5 (+) plasmid, rabbit GIPR-pcDNA5 (+) plasmid, monkey”, “µL). The diluted solution in tube A was added to the diluted solution in tube B, mixed evenly, and incubated at room temperature for 15 minutes.” for “µL).”
18-20 hours after transfection, human GLP-1R-CHO, cat GLP-1R-CHO, human GIPR-CHO, cat GIPR-CHO cells were resuspended in 1×Casein Stimulation Buffer (HBSS, 5 mM HEPES, 0.5 mM IBMX, 0.1% casein, pH7.4), and seeded into a 384-well cell culture plate at 9 µL/well (cell numbers being 2000, 2000, 1000, 2000 cells/well, respectively). […] The readings at 665 nm and 620 nm were determined with a 330 nm excitation light on a microplate reader. The 665 nm/620 nm reading ratio was calculated. […]

Q: For CC[C@H](C)[C@H](NC(=O)C(C)(C)NC(=O)[C@H](Cc1ccc(O)cc1)NC(=O)[C@H](CC(=O)O)NC(=O)[C@H](CO)NC(=O)[C@@H](NC(=O)C(C)(Cc1ccccc1)NC(=O)[C@@H](NC(=O)CNC(=O)[C@H](CCC(=O)O)NC(=O)C(C)(C)NC(=O)[C@@H](N)Cc1ccc(O)cc1)[C@@H](C)O)[C@@H](C)O)C(=O)NC(C)(C)C(=O)N[C@@H](CC(C)C)C(=O)N[C@@H](CC(=O)O)C(=O)N[C@@H](CCCCN)C(=O)N[C@@H](CCC(N)=O)C(=O)N[C@@H](C)C(=O)N[C@@H](CCC(N)=O)C(=O)N[C@@H](C)C(=O)N[C@@H](CCC(=O)O)C(=O)N[C@@H](Cc1ccccc1)C(=O)N[C@H](C(=O)N[C@@H](CCCCNC(=O)COCCOCCNC(=O)COCCOCCNC(=O)COCCOCCNC(=O)CC[C@H](NC(=O)CCCCCCCCCCCCCCCCCCCCC(=O)O)C(=O)O)C(=O)N[C@@H](Cc1c[nH]c2ccccc12)C(=O)N[C@@H](CC(C)C)C(=O)N[C@@H](CC(C)C)C(=O)N[C@@H](CCCCN)C(=O)NCC(=O)NCC(=O)N1CCC[C@H]1C(=O)N[C@@H](CO)C(=O)N[C@@H](CO)C(=O)NCC(=O)N[C@@H](C)C(=O)N1CCC[C@H]1C(=O)N1CCC[C@H]1C(=O)N1CCC[C@H]1C(=O)N[C@@H](CO)C(=O)N[C@@H](CCCCN)C(N)=O)C(C)C (some centres unmarked) [Compound P016], which “GIPR EC50 ratio” value (human GIPR) is on record?
A: The value was 1.00.

Q: What about the “GIPR EC50 ratio” value (cat GIPR) of the same compound?
A: The value was 3.59.
